Laboratory results taken from patent US20210277399A1, “Methods of Imaging and Tracking Nucleic Acids in Cells” (Emory University, priority 2020, published 2021).

Key:
Neuro-2a cells [1] = assay: Live cell imaging of mRNA in stress granules; format: cell-based, Mouse
Procedure: Experiments were performed to determine whether the MGD2/MGA system would be suitable for live cell imaging of endogenous mRNA localization and dynamics. Moreover, experiments were performed to determine whether one could simultaneously track the real-time localization properties of both RNA and proteins within a living cell. For this assay, Neuro-2a cells were co-transfected with expression plasmids for 1×MGA-mCDK6 and dual GFP-tagged G3BP1 protein. The expressed mRNA was labeled with MGD2 and photo crosslinked. The cells were then imaged to record the spatiotemporal features of both mRNA and protein in stress granules. […] Monitoring the signal intensity, the fluorescent signal generated from the MGD2 labeled granules was observed and remained consistent over >25 min of imaging.
After observing the motility and maturation of the granules, experiments were performed to determine whether one could also observe their dissolution. In mammalian cells, stress granules disassemble in the presence of small aliphatic molecules that disrupt weak hydrophobic interactions. Therefore, 1,6-hexanediol, an aliphatic alcohol commonly used for disassembly of stress granules was added. After arsenite-induced stress granule formation, the cells were incubated in 5% 1,6-hexanediol solution. The fluorescence signal of the labeled 1×MGA-mCDK6 was observed. […]

1×MGA-mGFP = assay: In vitro fluorescence enhancement of MGD2 with 1×MGA-mGFP mRNA; format: binding
Procedure: (§1) AcGFP mRNA appended with one or six copies of the aptamer sequence at the 5′ end, referred to as 1×MGA-mGFP and 6×MGA-mGFP, respectively, was transcribed.
(§2) The effect of UV-irradiation on the fluorescence enhancement was investigated.
(§3) A solution of 30 μM of MGD2 was mixed with 4 μM of the corresponding mRNA in 1×PBS (1.54 mM potassium monobasic, 155.17 mM sodium chloride, and 2.71 mM sodium phosphate dibasic with pH=7.2) and incubated at room temperature for 20 min. For comparison, a solution of MGD2 without any RNA was also prepared in 1×PBS. The fluorescence of these solutions was measured using a BioTek Cytation™ 5 plate reader with ex=620±20 nm and em=680±20 nm. The average fluorescence value from replicate experiments was used to calculate fluorescence enhancement.

6×MGA-mGFP = assay: In vitro fluorescence enhancement of MGD2 with 6×MGA-mGFP mRNA; format: binding
Procedure: as §1, §3

[2] = Fluorescence of MGD2 without any RNA in 1×PBS; format: physicochemical; details: MGD2 without RNA in 1×PBS; 30 μM MGD2; ex=620±20 nm, em=680±20 nm
Procedure: as §3

[3] = tested on: control mGFP mRNA that does not contain the aptamer sequence; assay: Effect of UV-irradiation on fluorescence of MGD2 with control mRNA; format: binding; details: up to 15 minutes of UV-irradiation
Procedure: as §2, §3

[4] = tested on: cellular RNA extracted from HeLa cells; assay: Determination of MGD2 selectivity in cellular RNA (agarose gel); format: biochemical; details: 10 min UV
Procedure: To determine the selectivity of MGD2 labeling, 6MGA-mGFP (200 ng) was spiked in into cellular RNA extracted from HeLa cells (400 ng) in 1×PBS. […] After 10 min of UV irradiation, the sample was mixed with equal volume of 50% glycerol solution and heated to 70° C. to denature the RNA. This sample was loaded on to 1% agarose gel containing 1% v/v Clorox® bleach2 and Sybr Gold™. After running the gel for 1 h at a constant 100 V, the gel was frozen with dry ice for 10 min and imaged using GE Amersham Typhoon™. This freezing step enhanced the fluorescence output of the malachite green molecule.
Experiments were performed to determine whether this would create problematic background signal during imaging. […] The collective observations from these experiments served as guidelines for irradiation time and dye concentrations used in subsequent cellular labeling experiments.

Neuro-2a cells [5] = assay: Fixed-cell imaging of MGA-functionalized mCDK6 in stress granules; format: cell-based, Mouse
From the text: Fixed cell experiments enable direct comparisons to FISH and validate labeling of the target RNA in cells. As a biological context for testing the labeling method, stress granules were selected. In response to stress conditions, cells form non-membrane-bound cytosolic […] RNA-protein assemblies to stall the translation of mRNA until the cells are no longer under stress. While most mRNAs can be concentrated to stress granules, different mRNAs have vastly distinct localization efficiencies. Using FISH, experiments indicate that the CDK6 mRNA is highly enriched in stress granules of mammalian cells CDK6 was used as a model system to fluorescently label and image the unique distribution pattern of the mRNA. Both the 6× and 1×MGA sequences were inserted at the 5′ end of the transcript, and the construct was placed under the control of the cytomegalovirus (CMV) promoter (FIG. 2A). Mouse neuroblastoma Neuro-2a cells were then transfected with these plasmids and incubated with 30 μM MGD2 for 20 min. The cells were then irradiated using 365 nm UV light to allow for covalent labeling of the aptamer. The media was replaced to washout excess dye, and cell stress conditions were induced by 45 min of arsenite exposure, a well characterized paradigm to induce formation of stress granules. Following fixation and immunofluorescence labeling of the stress granule marker protein (G3BP1), the cells were imaged using confocal microscopy.
To validate that the fluorescence signal observed was arising from labeling of the target CDK6 mRNA, the Neuro-2a cells were simultaneously incubated with FISH probes complementary to the CDK6 sequence but bearing a spectrally orthogonal fluorophore. This experiment also enabled us to directly compare the sensitivity of the MGA/MGD2 system to the commonly used FISH technique for RNA labeling in fixed cells. Following arsenite stress, MGD2 labeling, and cell fixation, the cells were incubated with our custom FISH probes. […] That may be because during FISH labeling, the fluorescent probe is hybridized after the RNA of interest is localized to granules. […]

[6] = 1×MGA-mGFP in the presence of MGD2
[7] = 6×MGA-mGFP in the presence of MGD2
[8] = 6MGA-mGFP 200 ng in 400 ng HeLa RNA, MGD2 50 μM

Row | emission maximum (1×MGA-mGFP; [6]) [nm] | excitation maximum (1×MGA-mGFP; [6]) [nm] | emission maximum (6×MGA-mGFP; [7]) [nm] | excitation maximum (6×MGA-mGFP; [7]) [nm] | SMILES | effect on RNA granules (Neuro-2a cells [1]; 5% 1,6-hexanediol, labeled 1×MGA-mCDK6) | incubation time after which signal from the protein granules disappeared (Neuro-2a cells [1]; 5% hexanediol, after arsenite-induced stress granule formation) [min] | fluorescence enhancement after UV irradiation (1×MGA-mGFP; 1×MGA-mGFP, after 15 minutes of UV irradiation (stabilized)) | fluorescence enhancement (1×MGA-mGFP; MGD2 bound to 1×MGA-mGFP, prior to UV-irradiation) [fold] | fluorescence enhancement (6×MGA-mGFP; MGD2 bound to 6×MGA-mGFP, prior to UV-irradiation) [fold] | fluorescence output (mean) [2] | fluorescence enhancement with control mRNA [3] | labeling of aptamer functionalized mRNA spiked into cellular RNA [4, 8] | labeling of cellular RNA [4, 8] | labeling of other cellular RNAs (bands in the MG channel) ([4]; MGD2 30 μM with 6×MGA-mGFP in presence of cellular RNA) | difference in fluorescence intensity of cytoplasmic mRNA granules, 1×MGA versus 6×MGA (Neuro-2a cells [5]; 1×MGA reduced versus 6×MGA-functionalized mRNA) [fold] | sensitivity of RNA detection compared with FISH (Neuro-2a cells [5]; 1×MGA- and 6×MGA-functionalized mRNAs, FISH probes complementary to CDK6) | labeling in control cells (Neuro-2a cells [5]; cells transfected with CDK6 lacking the MGA sequence, MGD2 and UV irradiation)
1 |  |  |  |  | OCCCCCCO [1,6-hexanediol] | most of the RNA granules exhibited a more sustained structural integrity | 7 |  |  |  |  |  |  |  |  |  |  | 
2 | 660 | 625 | 660 | 625 | CN(C)c1ccc(C(=C2C=CC(=[N+](C)C)C=C2)c2ccc(NC(=O)CCC3(C)N=N3)cc2)cc1 [MGD2, N-(4-((4-(dimethylamino)phenyl)(4-(3-(3-methyl-3H-diazirin-3-yl) Propan amido)phenyl)methylene)cyclohexa-2,5-dien-1-ylidene)-N-methylmethanaminium Chloride] |  |  | approximately 140 fold | 251 | > 1000 | 6.25 | did not result in any detectable fluorescence enhancement | selectively labeled the aptamer functionalized mRNA | did not have any detectable labeling of cellular RNA | no bands from labeling of other cellular RNAs | ~2 | higher sensitivity for RNA detection than FISH | did not show any labeling
